Results from US4215136A, “Insoluble metal salts of N-acetyl-tryptophane and use thereof” (Cooperation Pharmaceutique Francaise, priority 1976, dated 1980).
Read-outs that look alike come from different tables or passages of the source.

How the values were obtained:
[1] = "Shay ulcer" test (pylorus ligature); format: in vivo, female rats (Sprague-Dawley OFA Iffa-Credo)
Procedure: (A) Tests by the technique called "Shay ulcer" [Gastroenterology, 5, 43, (1945)].
The study was carried out on female rats [Sprague-Dawley OFA Iffa-Credo] weighing 170±10 g, conforming to the experimental protocol described below.
After fasting 48 hours, during which the rats had always available to them a 20% glucose solution, the pylorus was ligated and all beverage was eliminated.
Compound A in the form of two suspensions respectively 5 and 10% in distilled water containing 3% of gum arabic was administered orally and before the ligature of the pylorus to three groups of animals, the animals of the first two groups receiving the 5% solution and those of the third the 10% solution. These three groups of animals received active substance to the extent respectively of 250 mg/kg as regards those of the first group, 500 mg/kg as regards those of the second and 1000 mg/kg those of the third. A fourth group and control group of animals received 10 ml/kg of bidistilled water. […]
The tests having been carried out with aluminium acetyl-tryptophanate (compound A), on the one hand, and with titanium acetyl-tryptophanate (compound B), on the other hand, for each of these compounds there was determined, the "anti-ulcer dose 50" (or again active dose AD 50) by oral administration; for this determination the method of Litchfield and Wilcoxon [J. Pharmacol. 96, 98-111 (1949)], was employed. […]

[2] = "stress ulcer" test (immobilization); format: in vivo, female S.P.F. Sprague-Dawley OFA Iffa-Credo rats
Procedure: (B) Tests according to the technique called "stress ulcer". Rossi and Bonfils--Compte rendus de la Societe de Biologie, (1956), 150, page 2124.
The study was carried out on female S.P.F. Sprague-Dawley OFA Iffa-Credo rats, weighing 140±10 g and adhering to the following experimental protocol.
To cause the ulcer, the animals were immobilized in a flexible grid with meshes of 4×4 mm and suspended horizontally; they received neither food nor drink. They were sacrificed at the end of 24 hours. The stomachs were removed and opened and then the ulcers were counted with a binocular lens.
Each stomach was assessed according to the method of J. M. LWOFF and the ulceration index calculated.
The compound A suspended in distilled water with 3% of gum arabic was administered 48 hours and 24 hours before and at the time of placing under stress to three groups of animals. These animals each received by the oral route, 500, 1000 and 1500 mg/kg of this compound according to their group.
A control group received for three days, orally gummy water in the amount of 1 ml/100 g.
As in the case of "Shay ulcer" the same study was reproduced with kaolin.
The kaolin was suspended in distilled water with 3% of gum arabic and was administered by the buccal route 48 hours and 24 hours before and at the time of placing under stress. […]

[3] = "stress ulcer" technique aggravated by para-chloro-phenyl-alanine (PCPA); format: in vivo, female S.P.F. Sprague-Dawley OFA Iffa-Credo rats; details: PCPA 100 mg/kg intraperitoneally
Procedure: (C) Tests according to the "stress ulcer" technique aggravated by para-chloro-phenyl-alanine (PCPA) administered in a non-blocking dose.
The rats used were of the same sex, same strain and had the same weight as those used in the tests described under B. The experimental protocol was also the same.
However, in these tests the rats received intraperitoneally, at the time of stressing, 100 mg/kg of PCPA in suspension in distilled water including 3% of gum arabic and an "absolute control" group was provided having received no preparation before placing under stress.
By reason of the aggravation of the ulcers caused by the PCPA, the Lwoff assessment is no longer usable and is replaced by the following:
2 : three to four ulcers in the form of
5 : one to two ulcers in the form of "fur-
6 : three to four ulcers least 5 mm in length
with a maximum of 4 + 6 = 10.
In this way it was possible to determine the ulceration index and the percentage inhibition with respect to the controls.

[4] = anti-ulcer activity after administering reserpine; format: in vivo, Sprague-Dawley female rats, OFA S.P.F. Iffa Credo strain; details: p.o., 3 hours before and 3 hours after reserpine 5 mg/kg i.p.; Litchfield and Wilcoxon; 1200 min
Procedure: (D) Study of the anti-ulcer activity of compound A (D,L) and of compound B (D,L) after administering reserpine.
The technique used was that of Cohen and A. Pessonnier (Ann. Pharm. Fr (1963) 21, 215-22) according to the following protocol:
Sprague-Dawley female rats were used, of OFA S.P.F. Iffa Credo strain weighing 150±20 g; the rats received a single injection by the intraperitoneal route of 5 mg/kg of reserpine in solution in 0.25% acetic acid; the compound studied were administered twice by the buccal route: three hours before and three hours after the injection of reserpine; the rats were sacrificed 20 hours after the injection of reserpine; the assessment was established as follows:
1 = one to two ulcers in the form of small
2 = more than two ulcers
3 = one to two ulcers in the form of more or
4 = more than two ulcers
5 = one to two ulcers in the form of "furrows"
measuring at least 5 mm
6 = more than two ulcers
Maximum assessment for one stomach : 2 + 4 + 6 = 12
From the results obtained the ulceration index was deduced; the percentage of inhibition was calculated with respect to the index obtained in the controls.
The values of the AD50 calculated according to the method of Litchfield and Wilcoxon are: […]

[5] = Activity on intestinal passage (vegetable carbon); format: in vivo, male mice; details: 2, 4 and 6 g/kg buccally; 10 minutes
Procedure: II--Activity on intestinal passage:
Male mice, fasting for 24 hours, weighing 18-20 g. were used.
The substances to be tested were administered buccally before a suspension of vegetable carbon (10 g/100 ml).
After 10 minutes, the animals were bled and the intestine was removed and examined.

[6] = Interaction with a monoamine-oxidase inhibitor (MAOI, Tylciprine); format: in vivo, Sprague-Dawley male rats of OFA strain; details: for central nervous action indicated by hyperthermia and hyperactivity: with MAOI (Tylciprine)
Procedure: III--Action on the central nervous system:
(A) Interaction with a monoamine-oxidase inhibitor (MAOI):
Sprague-Dawley male rats of OFA strain received 20 mg/kg intra peritoneally of Tylciprine (MAOI) and twenty minutes later, 3 g/kg of compound A (D,L) bucally.

[7] = format: in vivo, male rats
Source text: (B) Interaction with a MAOI after treatment with P.C.P.A.
If the test is renewed under the same conditions but on male rats previously treated by decreasing doses of P.C.P.A. which is a tryptophane-hydroxylase inhibitor, it is observed that: […]

[8] = 8640 min
[9] = 2 g/kg, Tylciprine 20 mg/kg i.p.
[10] = 3 g/kg bucally, Tylciprine 20 mg/kg i.p.
[11] = after PCPA 6 mg/kg for 1 day, Tylciprine

**Q.** Which “activity relative to that expected by reason of Al^3+ / Ti^4+ ions alone” value ([1]; Shay ulcer) does the source give for `CC(=O)N[C@@H](Cc1c[nH]c2ccccc12)C(=O)[O-].CC(=O)N[C@@H](Cc1c[nH]c2ccccc12)C(=O)[O-].CC(=O)N[C@@H](Cc1c[nH]c2ccccc12)C(=O)[O-].[Al+3]` [Compound A, monobasic-(DL) aluminium N-acetyl-tryptophanate] here?
**A.** about 7 times higher

**Q.** What about the “AD 50 (anti-ulcer dose 50), Shay ulcer” value ([1]; oral, before ligature of the pylorus, 18 hours, Litchfield and Wilcoxon) of the same compound?
**A.** 550 mg/kg

**Q.** And the “AD 50, stress ulcer” value ([2]; buccal route, 48 h and 24 h before and at time of stress, sacrificed at 24 hours)?
**A.** 700 mg/kg

**Q.** What about the “superiority of compound A (over kaolin), stress ulcer versus Shay ulcer” value ([2]; stress ulcer compared with Shay ulcer) of the same compound?
**A.** still much more marked

**Q.** What about the “anti-ulcer activity, stress ulcer aggravated by PCPA (in words)” value [3] of the same compound?
**A.** still considerable

**Q.** What about the “AD50, stress ulcer aggravated by PCPA” value ([3]; oral route) of the same compound?
**A.** 1325 mg/kg

**Q.** What about the “AD50, reserpine ulcer” value [4] of the same compound?
**A.** 1447 mg/kg

**Q.** What about the “increase of intestinal passage with respect to the controls” value [5] of the same compound?
**A.** No significant increase

**Q.** What about the hyperactivity [6, 9] of the same compound?
**A.** notable hyperactivity

**Q.** And the hyperthermia [6, 9]?
**A.** does not cause hyperthermia

**Q.** What about the hyperthermia ([6]; 3 g/kg bucally, 20 minutes after Tylciprine 20 mg/kg i.p.) of the same compound?
**A.** Hyperthermia was observed which commenced fairly rapidly

**Q.** And the hyperactivity [6, 10]?
**A.** hyperactivity

**Q.** What about the onset of hyperactivity [6, 10] of the same compound?
**A.** 80 min

**Q.** And the “time of maximum hyperactivity” value [6, 10]?
**A.** 155 min

**Q.** And the “time of maximum hyperthermia” value [6, 10]?
**A.** 185 min

**Q.** And the “central nervous action indicated by hyperthermia and hyperactivity” value [6]?
**A.** apparently central nervous serotoninergic action, that is to say antidepressive

**Q.** What about the hyperactivity [7, 11] of the same compound?
**A.** notable hyperactivity

**Q.** What about the rectal temperature [7, 11] of the same compound?
**A.** without variation in the rectal temperature

**Q.** What about the hyperactivity ([7]; after PCPA 12.5 mg/kg for 1 day, Tylciprine) of the same compound?
**A.** first signs of hyperactivity

**Q.** And the hyperthermia and hyperactivity ([7]; after PCPA 50 mg/kg for 2 days, Tylciprine)?
**A.** neither hyperthermia nor hyperactivity

**Q.** And the “passage through the hemato-cerebral barrier” value ([7]; rat, in vivo)?
**A.** passage of its anion through the hemato-cerebral barrier

**Q.** And the “LD50 (higher than the total dose without mortality)” value ([8]; oral, six days)?
**A.** > 15000 mg/kg

**Q.** What about the “LD 50” value ([8]; orally) of the same compound?
**A.** > 15000 mg/kg

**Q.** With `N[C@@H](Cc1c[nH]c2ccccc12)C(=O)O` [L-tryptophane] as the compound, how does the “central nervous action indicated by hyperthermia and hyperactivity” value [6] read?
**A.** comparable activities
